Experimental findings from patent US9145354B2, “Pharmaceutical compounds” (priority 2011, dated 2015) are described below.

Usually IC50 stands for the midpoint of a concentration-inhibition curve. For orientation: EC50 means the concentration needed to bring the measured effect to its halfway point. Usually CC50 stands for the concentration giving 50% cytotoxicity. A low value points to greater toxicity to the cells.

Like-named read-outs stand apart in the source and are kept apart here.

The target in one data set is full length NS3/4a (Hepatitis C virus genotype 1b (isolate BK) (HCV), UniProt P26663). The data set can be described thus: NS3 Protease Assay (Example A), FRET-based. Type of data set: biochemical. The following applies: HCV NS3 protease assay, full length NS3/4a; read-out: Assay A IC50 (μM) average. A digest of the protocol:
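Initial rates were taken from fluorescence progress curves over 30 min at room temperature, and IC50 was fitted across replicates. In-house full-length NS3/4a cleaved a FRET peptide (5-FAMsp/QXL520) from the NS4A/B site. Medium: 50 mM Tris pH8, 20 mM DTT, 1% CHAPS, 10% glycerol, 5% DMSO.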

The subject of data set [1] is HCV subgenomic replicon in Huh-7 cells. The data set can be described thus: Replicon Assay (Example B), luciferase readout EC50. It counts as cell-based. A digest of the protocol: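 Huh-7 cells carrying a luciferase-neo HCV subgenomic replicon (NS3–NS5b) were treated with semilog compound dilutions (0.1% DMSO final), in triplicate, for 72 h at 37° C. EC50 came from Bright-Glo luciferase signal as a proxy for replicon RNA; viability was read by Alamar blue.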
(In antiviral work, replicon cells carry a viral genome segment that copies itself.)

The nature of data set [2]: Replicon Assay (Example B), Alamar Blue cytotoxicity CC50. It counts as cell-based. The conditions noted are these: human, lower value of the cell pair. The method in brief:
(§1)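 Huh-7 cells carrying a luciferase/neo HCV subgenomic replicon (NS3–NS5b) were treated with semilog compound dilutions in triplicate (0.1% DMSO) for 72 h at 37 °C. Viability came from Alamar blue resazurin-to-resorufin fluorescence (535/590 nm) for CC50. EC50 came from Bright-Glo luciferase luminescence as a proxy for HCV RNA.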

For data set [3], the system named is compound resistant HCV replicon variants in replicon bearing cells. The data set is described as follows: Colony forming assay for compound resistant HCV replicon variants (Example C). The conditions noted are these: up to 10x EC50, 1 mg/ml geneticin, 24 days, coomasie blue staining. It counts as cell-based.
Method: The existence of compound resistant HCV replicon quasispecies was analysed using colony forming assays, where the emergence of compound resistant HCV replicon variants can allow production sufficient replicon encoded neomycin for cellular survival in medium containing 1 mg/ml geneticin (Life Technologies). 4,000 replicon bearing cells were plated/well on 12 well plates, and allowed to adhere overnight. […] The medium used also contained 1 mg/ml geneticin. Plates were then incubated at 37° C. in an atmosphere of 5% CO2 and air for 24 days the medium/compound solution with 1 mg/ml gentamicin was replaced twice every 7 days, before staining surviving colonies with coomasie blue.
Data set [4] has as its system Huh-7 cells persistently infected with the HCV subgenomic replicon. The data set can be described thus: Replicon Assay (Example B), Alamar Blue cytotoxicity CC50. Type of data set: cell-based. The following applies: lower value of the cell pair. A digest of the protocol: as §1

Sequence of full length NS3/4a (P26663 1027-1657): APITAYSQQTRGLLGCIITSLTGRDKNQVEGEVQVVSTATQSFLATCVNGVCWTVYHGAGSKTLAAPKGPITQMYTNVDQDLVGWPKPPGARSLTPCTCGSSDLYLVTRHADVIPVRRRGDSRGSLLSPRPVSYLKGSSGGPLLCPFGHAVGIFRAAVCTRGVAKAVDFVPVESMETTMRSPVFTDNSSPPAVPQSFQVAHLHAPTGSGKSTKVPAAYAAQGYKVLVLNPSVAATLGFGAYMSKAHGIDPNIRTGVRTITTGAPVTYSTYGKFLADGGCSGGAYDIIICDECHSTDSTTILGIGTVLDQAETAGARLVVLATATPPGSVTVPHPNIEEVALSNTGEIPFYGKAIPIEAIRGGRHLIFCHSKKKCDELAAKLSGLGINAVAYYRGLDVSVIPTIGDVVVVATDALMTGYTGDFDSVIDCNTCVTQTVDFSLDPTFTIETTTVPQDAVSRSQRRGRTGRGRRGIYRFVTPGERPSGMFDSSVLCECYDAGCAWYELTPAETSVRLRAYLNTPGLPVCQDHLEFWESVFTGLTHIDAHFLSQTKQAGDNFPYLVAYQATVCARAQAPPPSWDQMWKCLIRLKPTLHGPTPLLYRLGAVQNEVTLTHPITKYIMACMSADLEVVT

`CC[C@@H](N[C@@H](C)CC(N)=O)c1ccc(Cl)c(C(=O)c2ccccc2)c1F` [Example 84, (3S)-3-{[(1R)-1-(3-benzoyl-4-chloro-2-fluorophenyl)-propyl]-amino}butanamide]: at full length NS3/4a, the IC50 stood at 0.057 µM. The EC50 in data set [1] (Hepatitis C virus, Huh-7, pre-determined EC50 used to set concentrations in combination studies, read-out: EC50 (replicon)) was 6 nM; in data set [1] (Hepatitis C virus, Huh-7, replicon assay, luciferase readout, upper value of the cell pair, read-out: Assay B EC50), 6 nM. In addition, in data set [2], the CC50 at 72 h was > 3000 nM. Moreover, in data set [3], the “emergence of compound resistant colonies” value was “prevented”.

Turning to `CCC(NC1CCCC1C(N)=O)c1ccc(Cl)c(C(=O)c2ccc(N)nc2)c1F` (racemic) [Example 126, 2-{[1-{3-[(6-aminopyridin-3-yl)carbonyl]-4-chloro-2-fluorophenyl}propyl]amino} cyclopentane-1-carboxamide], the EC50 in data set [1] (replicon assay, luciferase readout, upper value of the cell pair, read-out: Assay B EC50) is 91 nM. The CC50 in data set [4] was > 3000 nM.
